Measurements published in the supplement of paper PMC10307832.

Legend:
Assay in all cases: relative viability (nuclei count vs DMSO), 5 days (fraction); higher = more cells survive
[1] = compound: CCN(CCO)CCCC(C)Nc1ccnc2cc(Cl)ccc12 [Hydroxychloroquine] + CS(=O)(=O)N1CCN(Cc2cc3nc(-c4cccc5[nH]ncc45)nc(N4CCOCC4)c3s2)CC1 [Pictilisib] (partner 1 µM)
Method in brief: (§1)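 Lung cancer cell lines were pin-tool dosed in 1536-well plates on the day after seeding, with either a lone drug or a fixed anchor-drug dose plus five library-drug doses (not always all listed) in √10 steps. Nuclei were counted on 4× images after 5 days. Relative viability is the ratio of treated-well to vehicle-well nuclei counts, with each value a median of duplicate plates.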

[2] = compound: CCN(CCO)CCCC(C)Nc1ccnc2cc(Cl)ccc12 [Hydroxychloroquine] + CC(C)C[C@H](NC(=O)[C@H](Cc1ccccc1)NC(=O)c1cnccn1)B(O)O [Bortezomib] (partner 0.002 µM)
Method in brief: as §1

[3] = compound: CCN(CCO)CCCC(C)Nc1ccnc2cc(Cl)ccc12 [Hydroxychloroquine] + CC(=O)c1c(C)c2cnc(Nc3ccc(N4CCNCC4)cn3)nc2n(C2CCCC2)c1=O [Palbociclib] (partner 0.5 µM)
Method in brief: as §1

[4] = compound: CCN(CCO)CCCC(C)Nc1ccnc2cc(Cl)ccc12 [Hydroxychloroquine] + COc1cc2c(Oc3ccc(NC(=O)C4(C(=O)Nc5ccc(F)cc5)CC4)cc3F)ccnc2cc1OCCCN1CCOCC1 [Foretinib] (partner 0.25 µM)
Method in brief: as §1

Row | Cell Line | relative viability ([1]; first compound 0.5 µM) | relative viability ([1]; first compound 1.581 µM) | relative viability ([1]; first compound 5 µM) | relative viability ([1]; first compound 15.81 µM) | relative viability ([1]; first compound 50 µM) | relative viability ([2]; first compound 0.5 µM) | relative viability ([2]; first compound 1.581 µM) | relative viability ([2]; first compound 5 µM) | relative viability ([2]; first compound 15.81 µM) | relative viability ([2]; first compound 50 µM) | relative viability ([3]; first compound 0.5 µM) | relative viability ([3]; first compound 1.581 µM) | relative viability ([3]; first compound 5 µM) | relative viability ([3]; first compound 15.81 µM) | relative viability ([3]; first compound 50 µM) | relative viability ([4]; first compound 0.5 µM) | relative viability ([4]; first compound 1.581 µM) | relative viability ([4]; first compound 5 µM) | relative viability ([4]; first compound 15.81 µM) | relative viability ([4]; first compound 50 µM)
1 | HCC-366 | 0.202 | 0.13 | 0.198 | 0.18 | 0.148 | 1.1 | 1.15 | 1.04 | 1.06 | 1.16 | 0.324 | 0.406 | 0.366 | 0.381 | 0.665 | 0.938 | 0.891 | 0.902 | 0.945 | 0.923
2 | HCC-827 | 1.01 | 0.899 | 0.755 | 0.98 | 1.06 | 1.03 | 1.04 | 1.07 | 1.16 | 1.01 | 0.413 | 0.456 | 0.467 | 0.466 | 0.521 | 1.13 | 0.956 | 1.05 | 1.2 | 1.08
3 | HOP-62 | 0.682 | 0.643 | 0.722 | 0.854 | 0.515 | 0.652 | 0.9 | 0.751 | 0.945 | 1.02 | 0.486 | 0.429 | 0.444 | 0.487 | 0.548 | 1.15 | 1.24 | 1.14 | 1.27 | 1.23
4 | IA-LM | 0.296 | 0.357 | 0.361 | 0.433 | 0.338 | 0.695 | 0.83 | 0.909 | 0.758 | 1 | – | – | – | – | – | 1.15 | 1.31 | 1.12 | 1.26 | 1.27
5 | LC-2-ad | 0.321 | 0.395 | 0.463 | 0.546 | 0.436 | 0.974 | 1.03 | 1.04 | 1.01 | 1.12 | 0.454 | 0.454 | 0.486 | 0.555 | 0.476 | 0.956 | 0.895 | 0.895 | 0.921 | 1.05
6 | LCLC-97TM1 | 0.265 | 0.183 | 0.277 | 0.182 | 0.131 | 0.453 | 0.764 | 0.483 | 0.523 | 0.529 | 0.223 | 0.227 | 0.313 | 0.275 | 0.21 | 0.989 | 0.934 | 0.979 | 0.983 | 1.01
7 | LCLC-103H | 0.666 | 0.612 | 0.567 | 0.542 | 0.67 | 1.13 | 0.837 | 1.04 | 1.15 | 1.06 | 0.498 | 0.496 | 0.524 | 0.461 | 0.469 | 0.776 | 0.707 | 0.848 | 0.893 | 0.887
8 | LK-2 | 0.607 | – | 0.58 | 0.62 | 0.558 | – | – | – | – | – | 0.884 | 0.832 | 0.762 | 0.809 | 0.697 | 1.31 | 1.41 | – | 1.28 | 0.955
9 | NCI-H358 | 0.32 | 0.274 | 0.281 | 0.327 | 0.328 | – | – | – | – | – | 0.13 | 0.126 | 0.137 | 0.122 | 0.137 | 0.639 | 0.628 | 0.643 | 0.593 | 0.827
10 | NCI-H522 | – | – | – | – | – | – | – | – | – | – | 0.822 | – | 1.03 | 0.986 | 0.798 | – | – | – | – | –
11 | NCI-H596 | 0.386 | 0.406 | 0.32 | 0.367 | 0.399 | 1.04 | 0.857 | 0.847 | 0.999 | 1.19 | – | – | – | – | – | 0.758 | 0.669 | 0.875 | 0.823 | 0.855
12 | NCI-H1395 | 0.605 | 0.836 | 0.627 | 0.564 | 0.569 | – | – | – | – | – | 0.652 | 0.556 | 0.626 | 0.608 | 0.563 | 1.06 | 0.989 | 0.872 | 0.963 | 1.02
13 | NCI-H1563 | 0.694 | 0.605 | 0.574 | 0.627 | 0.596 | 0.891 | 0.784 | 0.923 | 0.779 | 0.759 | – | – | – | – | – | 0.886 | 0.804 | 0.88 | 0.825 | 0.965
14 | NCI-H1648 | – | – | – | – | – | – | – | – | – | – | 0.277 | 0.264 | 0.266 | 0.211 | 0.288 | – | – | – | – | –
15 | NCI-H1703 | 0.272 | 0.241 | 0.224 | 0.263 | 0.216 | 0.322 | 0.273 | 0.284 | 0.291 | 0.316 | – | – | – | – | – | 0.402 | 0.443 | 0.313 | 0.347 | 0.379
16 | NCI-H1792 | 0.286 | 0.256 | 0.254 | 0.26 | 0.249 | 0.979 | 0.955 | 1.02 | 1.05 | 1.17 | 0.696 | 0.683 | 0.584 | 0.657 | 0.68 | – | – | – | – | –
17 | NCI-H1793 | 0.349 | 0.308 | 0.415 | 0.307 | 0.364 | – | – | – | – | – | 0.331 | 0.311 | 0.372 | 0.325 | 0.312 | 0.821 | 0.618 | 0.624 | 0.661 | 0.534
18 | NCI-H1944 | 0.309 | 0.293 | 0.326 | 0.325 | 0.382 | – | – | – | – | – | 0.301 | 0.314 | 0.319 | 0.29 | 0.346 | 0.951 | 0.936 | 0.775 | 0.89 | 0.785
19 | NCI-H2170 | 0.327 | 0.294 | 0.282 | 0.284 | 0.333 | – | – | – | – | – | 0.379 | 0.401 | 0.415 | 0.4 | 0.421 | 1.04 | 1.04 | 0.973 | 1.01 | 1.1
20 | NCI-H2342 | – | – | – | – | – | – | – | – | – | – | 0.565 | 0.514 | 0.507 | 0.487 | 0.514 | 0.917 | 0.995 | 1.05 | 1.01 | 1.1
21 | SK-MES-1 | 0.4 | 0.373 | 0.321 | 0.342 | 0.359 | – | – | – | – | – | 0.365 | 0.319 | 0.332 | 0.368 | 0.343 | 0.883 | 0.822 | 1.04 | 0.901 | 0.792
22 | SW 900 | – | – | – | – | – | – | – | – | – | – | 0.5 | 0.502 | 0.568 | 0.597 | 0.657 | 0.941 | 0.824 | 0.866 | 0.816 | 0.869
